Tests used:
Format in all cases: in vivo
[1] = test system: velvetleaf (Abutilon theophrasti); assay: Test G Post-Emergence Protocol; conditions: Abutilon theophrasti, post-emergence, 312 h; for pest or weed control at 15.625 g/ha: 15.625 g ai/ha, evaluated after 13 days (100=total damage to plant; 0=no damage to plant), read-out: Velvetleaf damage rating; for pest or weed control at 62.5 g/ha: 62.5 g ai/ha, read-out: Velvetleaf damage rating (100=total damage to plant; 0=no damage to plant); for pest or weed control at 62.5 g/ha / pest or weed control at 250 g/ha: evaluated after 13 days; for pest or weed control at 250 g/ha: 250 g ai/ha, read-out: damage to plant, Velvetleaf (100=total damage to plant; 0=no damage to plant)
How it was run: (§1)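 Foliar application was made 8 days after sowing, using an aqueous spray of the active in acetone/water (50:50) with 0.5% Tween 20, at doses of 15.625, 62.5 or 250 g/ha. Injury was assessed 13 days later, where 100 meant the plant was fully damaged.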

[2] = test system: barnyardgrass (Echinochloa crus-galli); assay: Test G Post-Emergence Protocol; conditions: Echinochloa crus-galli, post-emergence, 312 h; for pest or weed control at 15.625 g/ha: 15.625 g ai/ha, evaluated after 13 days (100=total damage to plant; 0=no damage to plant), read-out: Barnyardgrass damage rating; for pest or weed control at 62.5 g/ha: 62.5 g ai/ha, read-out: Barnyardgrass damage rating (100=total damage to plant; 0=no damage to plant); for pest or weed control at 62.5 g/ha / pest or weed control at 250 g/ha: evaluated after 13 days; for pest or weed control at 250 g/ha: 250 g ai/ha, read-out: damage to plant, Barnyardgrass (100=total damage to plant; 0=no damage to plant)
How it was run: as §1

[3] = test system: giant foxtail (Setaria faberi); assay: Test G Post-Emergence Protocol; conditions: Setaria faberi, post-emergence, 312 h; for pest or weed control at 15.625 g/ha: 15.625 g ai/ha, evaluated after 13 days (100=total damage to plant; 0=no damage to plant), read-out: Foxtail, Giant damage rating; for pest or weed control at 62.5 g/ha: 62.5 g ai/ha, read-out: Foxtail, Giant damage rating (100=total damage to plant; 0=no damage to plant); for pest or weed control at 62.5 g/ha / pest or weed control at 250 g/ha: evaluated after 13 days; for pest or weed control at 250 g/ha: 250 g ai/ha, read-out: damage to plant, Foxtail, Giant (100=total damage to plant; 0=no damage to plant)
How it was run: as §1

[4] = test system: ivy-leaved morning glory (Ipomoea hederacea); assay: Test G Post-Emergence Protocol; conditions: Ipomoea, post-emergence, 312 h; for pest or weed control at 15.625 g/ha: 15.625 g ai/ha, evaluated after 13 days (100=total damage to plant; 0=no damage to plant), read-out: Morningglory, Ivy-leaved damage rating; for pest or weed control at 62.5 g/ha: 62.5 g ai/ha, read-out: Morningglory, Ivy-leaved damage rating (100=total damage to plant; 0=no damage to plant); for pest or weed control at 62.5 g/ha / pest or weed control at 250 g/ha: evaluated after 13 days; for pest or weed control at 250 g/ha: 250 g ai/ha, read-out: damage to plant, Morningglory, Ivy-leaved (100=total damage to plant; 0=no damage to plant)
How it was run: as §1

corn (Zea mays) [5] = assay: Test G Post-Emergence Protocol; conditions: Zea mays, post-emergence, 312 h; for plant injury at 15.625 g/ha: 15.625 g ai/ha, evaluated after 13 days (100=total damage to plant; 0=no damage to plant), read-out: Corn damage rating; for plant injury at 62.5 g/ha: 62.5 g ai/ha, read-out: Corn damage rating (100=total damage to plant; 0=no damage to plant); for plant injury at 62.5 g/ha / plant injury at 250 g/ha: evaluated after 13 days; for plant injury at 250 g/ha: 250 g ai/ha, read-out: damage to plant, Corn (100=total damage to plant; 0=no damage to plant)
How it was run: as §1

[6] = test system: redroot pigweed (Amaranthus retroflexus); assay: Test G Post-Emergence Protocol; conditions: Amaranthus retroflexus, post-emergence, 312 h; for pest or weed control at 15.625 g/ha: 15.625 g ai/ha, evaluated after 13 days (100=total damage to plant; 0=no damage to plant), read-out: Pigweed, Redroot damage rating; for pest or weed control at 62.5 g/ha: 62.5 g ai/ha, read-out: Pigweed, Redroot damage rating (100=total damage to plant; 0=no damage to plant); for pest or weed control at 62.5 g/ha / pest or weed control at 250 g/ha: evaluated after 13 days; for pest or weed control at 250 g/ha: 250 g ai/ha, read-out: damage to plant, Pigweed, Redroot (100=total damage to plant; 0=no damage to plant)
How it was run: as §1

[7] = test system: velvetleaf (Abutilon theophrasti); assay: Test G Pre-Emergence Protocol; conditions: Abutilon theophrasti, pre-emergence, 312 h, evaluated after 13 days; for pest or weed control at 15.625 g/ha: 15.625 g ai/ha; for pest or weed control at 15.625 g/ha / pest or weed control at 250 g/ha: read-out: Velvetleaf damage rating (100=total damage to plant; 0=no damage to plant); for pest or weed control at 62.5 g/ha: 62.5 g ai/ha, 100=total damage to plant, 0=no damage to plant, read-out: plant damage rating, Velvetleaf; for pest or weed control at 250 g/ha: 250 g ai/ha
How it was run: (§2)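 Visual injury (0–100) at day 13 after a single pre-emergence spray. Rates: 15.625, 62.5, 250 g/ha in acetone–water 50:50 with 0.5% Tween 20. Growth conditions: 24/16° C, 14 h light, 65% humidity.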

[8] = test system: barnyardgrass (Echinochloa crus-galli); assay: Test G Pre-Emergence Protocol; conditions: Echinochloa crus-galli, pre-emergence, 312 h, evaluated after 13 days; for pest or weed control at 15.625 g/ha: 15.625 g ai/ha, read-out: Barnyard grass damage rating (100=total damage to plant; 0=no damage to plant); for pest or weed control at 62.5 g/ha: 62.5 g ai/ha, 100=total damage to plant, 0=no damage to plant, read-out: plant damage rating, Barnyardgrass; for pest or weed control at 250 g/ha: 250 g ai/ha, read-out: Barnyardgrass damage rating (100=total damage to plant; 0=no damage to plant)
How it was run: as §2

[9] = test system: giant foxtail (Setaria faberi); assay: Test G Pre-Emergence Protocol; conditions: Setaria faberi, pre-emergence, 312 h, evaluated after 13 days; for pest or weed control at 15.625 g/ha: 15.625 g ai/ha; for pest or weed control at 15.625 g/ha / pest or weed control at 250 g/ha: read-out: Foxtail, Giant damage rating (100=total damage to plant; 0=no damage to plant); for pest or weed control at 62.5 g/ha: 62.5 g ai/ha, 100=total damage to plant, 0=no damage to plant, read-out: plant damage rating, Foxtail, Giant; for pest or weed control at 250 g/ha: 250 g ai/ha
How it was run: as §2

[10] = test system: ivy-leaved morning glory (Ipomoea hederacea); assay: Test G Pre-Emergence Protocol; conditions: Ipomoea, pre-emergence, 312 h, evaluated after 13 days; for pest or weed control at 15.625 g/ha: 15.625 g ai/ha, read-out: Morning-glory, Ivy-leaved damage rating (100=total damage to plant; 0=no damage to plant); for pest or weed control at 62.5 g/ha: 62.5 g ai/ha, 100=total damage to plant, 0=no damage to plant, read-out: plant damage rating, Morningglory, Ivy-leaved; for pest or weed control at 250 g/ha: 250 g ai/ha, read-out: Morningglory, Ivy-leaved damage rating (100=total damage to plant; 0=no damage to plant)
How it was run: as §2

corn (Zea mays) [11] = assay: Test G Pre-Emergence Protocol; conditions: Zea mays, pre-emergence, 312 h, evaluated after 13 days; for plant injury at 15.625 g/ha: 15.625 g ai/ha; for plant injury at 15.625 g/ha / plant injury at 250 g/ha: read-out: Corn damage rating (100=total damage to plant; 0=no damage to plant); for plant injury at 62.5 g/ha: 62.5 g ai/ha, 100=total damage to plant, 0=no damage to plant, read-out: plant damage rating, Corn; for plant injury at 250 g/ha: 250 g ai/ha
How it was run: as §2

[12] = test system: redroot pigweed (Amaranthus retroflexus); assay: Test G Pre-Emergence Protocol; conditions: Amaranthus retroflexus, pre-emergence, 312 h, evaluated after 13 days; for pest or weed control at 15.625 g/ha: 15.625 g ai/ha; for pest or weed control at 15.625 g/ha / pest or weed control at 250 g/ha: read-out: Pigweed, Redroot damage rating (100=total damage to plant; 0=no damage to plant); for pest or weed control at 62.5 g/ha: 62.5 g ai/ha, 100=total damage to plant, 0=no damage to plant, read-out: plant damage rating, Pigweed, Redroot; for pest or weed control at 250 g/ha: 250 g ai/ha
How it was run: as §2

Row | Structure (SMILES) | pest or weed control at 15.625 g/ha [1] [%] | pest or weed control at 62.5 g/ha [1] [%] | pest or weed control at 250 g/ha [1] [%] | pest or weed control at 15.625 g/ha [2] [%] | pest or weed control at 62.5 g/ha [2] [%] | pest or weed control at 250 g/ha [2] [%] | pest or weed control at 15.625 g/ha [3] [%] | pest or weed control at 62.5 g/ha [3] [%] | pest or weed control at 250 g/ha [3] [%] | pest or weed control at 15.625 g/ha [4] [%] | pest or weed control at 62.5 g/ha [4] [%] | pest or weed control at 250 g/ha [4] [%] | plant injury at 15.625 g/ha (corn (Zea mays) [5]) [%] | plant injury at 62.5 g/ha (corn (Zea mays) [5]) [%] | plant injury at 250 g/ha (corn (Zea mays) [5]) [%] | pest or weed control at 15.625 g/ha [6] [%] | pest or weed control at 62.5 g/ha [6] [%] | pest or weed control at 250 g/ha [6] [%] | pest or weed control at 15.625 g/ha [7] [%] | pest or weed control at 62.5 g/ha [7] [%] | other results
1 | COc1c(Cl)ccc([C@H]2CNC(=O)[C@@H]2C(=O)Nc2cccc(F)n2)c1F (racemic) [Compound 1478] | 0 | 0 | 0 | 10 | 40 | 60 | 10 | 30 | 60 | 0 | 0 | 10 | 0 | 10 | 20 | 0 | 0 | 10 | 0 | 0 | pest or weed control at 250 g/ha [7]: 0%; pest or weed control at 15.625 g/ha [8]: 0%; pest or weed control at 62.5 g/ha [8]: 0%; pest or weed control at 250 g/ha [8]: 30%; pest or weed control at 15.625 g/ha [9]: 0%; pest or weed control at 62.5 g/ha [9]: 0%; pest or weed control at 250 g/ha [9]: 40%; pest or weed control at 15.625 g/ha [10]: 0%; pest or weed control at 62.5 g/ha [10]: 0%; pest or weed control at 250 g/ha [10]: 0%; plant injury at 15.625 g/ha (corn (Zea mays) [11]): 0%; plant injury at 62.5 g/ha (corn (Zea mays) [11]): 0%; plant injury at 250 g/ha (corn (Zea mays) [11]): 10%; pest or weed control at 15.625 g/ha [12]: 0%; pest or weed control at 62.5 g/ha [12]: 0%; pest or weed control at 250 g/ha [12]: 0%
2 | Cc1cc(NC(=O)[C@@H]2C(=O)N(C)C[C@H]2c2ccc(C(F)(F)F)cc2)ccn1 (racemic) [Compound 1600] | 0 | 0 | 0 | 0 | 0 | 0 | 0 | 0 | 0 | 0 | 0 | 0 | 0 | 0 | 0 | 0 | 0 | 0 | 0 | 0 | pest or weed control at 250 g/ha [7]: 0%; pest or weed control at 15.625 g/ha [8]: 0%; pest or weed control at 62.5 g/ha [8]: 0%; pest or weed control at 250 g/ha [8]: 0%; pest or weed control at 15.625 g/ha [9]: 0%; pest or weed control at 62.5 g/ha [9]: 0%; pest or weed control at 250 g/ha [9]: 0%; pest or weed control at 15.625 g/ha [10]: 0%; pest or weed control at 62.5 g/ha [10]: 0%; pest or weed control at 250 g/ha [10]: 0%; plant injury at 15.625 g/ha (corn (Zea mays) [11]): 0%; plant injury at 62.5 g/ha (corn (Zea mays) [11]): 0%; plant injury at 250 g/ha (corn (Zea mays) [11]): 0%; pest or weed control at 15.625 g/ha [12]: 0%; pest or weed control at 62.5 g/ha [12]: 0%; pest or weed control at 250 g/ha [12]: 0%

Reference: patent US12077503B2, “Substituted cyclic amides and their use as herbicides” (FMC CORPORATION, priority 2015, dated 2024)
